The supplement of paper PMC10307832

Columns and labels:
Assay in all cases: relative viability (nuclei count vs DMSO), 5 days (fraction); higher = more cells survive
[1] = compound: CCOc1cc2ncc(C#N)c(Nc3ccc(OCc4ccccn4)c(Cl)c3)c2cc1NC(=O)/C=C/CN(C)C [Neratinib]
Outline: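 Lung cancer cell lines in 1536-well plates were kept overnight at 37 °C, then pinned with five library-drug doses (not always all listed) spaced by √10 on vehicle-anchored plates. After 5 days without medium change, cells were fixed, permeabilised and Hoechst-stained in one step, imaged at 4×, and nuclei were counted with MetaXpress. Viability is treated-well nuclei divided by vehicle-well nuclei, taken as the median over plates. Plates passed only with control CV below 25% and at least one doubling.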

[2] = compound: CCOc1cc2ncc(C#N)c(Nc3ccc(OCc4ccccn4)c(Cl)c3)c2cc1NC(=O)/C=C/CN(C)C [Neratinib] + CC(=O)Nc1cccc(-n2c(=O)n(C3CC3)c(=O)c3c(Nc4ccc(I)cc4F)n(C)c(=O)c(C)c32)c1 [Trametinib] (partner 0.02 µM)
Outline: (§1)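 A single step with final 0.05% Triton X-100, 1% formaldehyde and 1 ug/ml Hoechst fixed the cells and stained nuclei 5 days after treatment. Lung cancer cell lines in 1536-well plates had been treated by pin tool the day after seeding with one drug alone or a fixed anchor-drug dose plus five library-drug doses (not always all listed) in √10 steps, and nuclei were counted on 4× images. Relative viability is the ratio of nuclei in treated wells to nuclei in vehicle wells, taken as the median of duplicate plates.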

[3] = compound: CCOc1cc2ncc(C#N)c(Nc3ccc(OCc4ccccn4)c(Cl)c3)c2cc1NC(=O)/C=C/CN(C)C [Neratinib] + O=C(c1cc(Cc2n[nH]c(=O)c3ccccc23)ccc1F)N1CCN(C(=O)C2CC2)CC1 [Olaparib] (partner 8 µM)
Outline: as §1

[4] = compound: CCOc1cc2ncc(C#N)c(Nc3ccc(OCc4ccccn4)c(Cl)c3)c2cc1NC(=O)/C=C/CN(C)C [Neratinib] + N=C(N)NC(=N)NCCc1ccccc1 [Phenformin] (partner 250 µM)
Outline: as §1

Row | Cell Line | relative viability ([1]; 0.01 µM) | relative viability ([1]; 0.03162 µM) | relative viability ([1]; 0.3162 µM) | relative viability ([1]; 1 µM) | relative viability ([2]; first compound 0.01 µM) | relative viability ([2]; first compound 0.03162 µM) | relative viability ([2]; first compound 0.1 µM) | relative viability ([2]; first compound 0.3162 µM) | relative viability ([2]; first compound 1 µM) | relative viability ([3]; first compound 0.01 µM) | relative viability ([3]; first compound 0.03162 µM) | relative viability ([3]; first compound 0.1 µM) | relative viability ([3]; first compound 0.3162 µM) | relative viability ([3]; first compound 1 µM) | relative viability ([4]; first compound 0.01 µM) | relative viability ([4]; first compound 0.03162 µM) | relative viability ([4]; first compound 0.1 µM) | relative viability ([4]; first compound 0.3162 µM) | relative viability ([4]; first compound 1 µM) | relative viability ([1]; 0.1 µM)
1 | SK-LU-1 | 1.1 | 1.2 | 0.979 | 0.46 | 0.517 | 0.58 | 0.457 | 0.442 | 0.344 | 0.486 | 0.549 | 0.413 | 0.432 | 0.314 | 0.584 | 0.515 | 0.521 | 0.381 | 0.25 | 
2 | SK-MES-1 | 1.06 | 1.09 | 0.463 | 0.298 | 0.648 | 0.564 | 0.564 | 0.332 |  | 0.807 | 0.778 | 0.631 | 0.264 | 0.233 | 0.675 | 0.706 | 0.665 | 0.285 | 0.2 | 0.91
3 | PC-3 [JPC-3] | 1.07 | 1.12 | 0.687 | 0.471 | 0.745 | 0.831 | 0.629 | 0.427 | 0.435 |  | 1.29 | 0.964 | 0.81 | 0.424 | 0.459 | 0.497 | 0.432 | 0.365 | 0.336 | 0.947
4 | NCI-H1355 | 1.11 | 1.02 | 0.933 | 0.826 | 0.422 | 0.421 | 0.344 | 0.361 | 0.349 | 0.772 | 0.719 | 0.7 | 0.701 | 0.547 | 0.485 | 0.433 | 0.408 | 0.417 | 0.427 | 0.833
5 | NCI-H1975 | 1.07 | 1.1 | 0.58 | 0.244 | 0.388 | 0.542 | 0.373 | 0.233 | 0.165 | 0.917 | 0.96 | 0.644 | 0.43 | 0.18 | 0.434 | 0.446 | 0.403 | 0.211 | 0.161 | 0.905
6 | LK-2 | 1.12 | 1.05 | 0.718 | 0.499 | 0.948 | 0.714 | 0.851 | 0.501 | 0.34 | 0.941 | 0.949 | 0.747 | 0.553 | 0.433 | 0.467 | 0.418 | 0.518 | 0.287 | 0.318 | 0.988
7 | PC-14 | 1.1 | 1.13 | 0.732 | 0.211 | 0.717 | 0.832 | 0.573 | 0.096 | 0.0456 | 0.188 | 0.344 | 0.37 | 0.233 | 0.102 | 0.602 | 0.764 | 0.655 | 0.267 | 0.186 | 0.964
8 | NCI-H2342 | 0.949 | 1.01 | 0.582 | 0.66 | 0.772 | 0.772 | 0.71 | 0.667 | 0.543 | 0.397 | 0.416 | 0.385 | 0.331 | 0.298 | 0.662 | 0.688 | 0.517 | 0.351 | 0.403 | 0.765
9 | HCC-366 | 1.05 | 1.1 | 1.01 |  | 0.428 | 0.396 | 0.342 | 0.322 | 0.205 | 0.36 | 0.324 | 0.267 | 0.347 | 0.404 | 0.631 | 0.617 | 0.611 | 0.626 | 0.547 | 
10 | HOP-62 | 1.02 | 1.15 | 0.914 | 1.09 | 0.408 | 0.4 | 0.337 |  | 0.405 | 0.416 | 0.459 | 0.367 | 0.412 | 0.344 | 0.716 | 0.702 | 0.621 | 0.585 | 0.617 | 0.934
11 | NCI-H1944 | 1.18 | 0.977 | 0.767 | 0.569 | 0.434 | 0.396 | 0.364 | 0.311 | 0.286 | 0.45 | 0.406 | 0.229 | 0.352 | 0.319 | 0.237 | 0.202 | 0.192 | 0.176 | 0.174 | 0.865
12 | NCI-H596 | 1.01 | 1.03 | 1.09 | 0.817 | 0.825 | 0.947 | 0.765 | 0.707 | 0.641 | 0.633 | 0.726 | 0.622 | 0.659 | 0.574 | 0.754 | 0.895 | 0.75 | 0.695 | 0.562 | 0.984
13 | LU99A | 0.948 | 1.04 | 0.891 | 0.646 | 0.578 |  | 0.515 | 0.527 | 0.43 | 0.251 | 0.286 | 0.246 | 0.268 |  | 0.92 | 0.905 | 0.87 | 0.801 | 0.683 | 0.908
14 | NCI-H727 |  | 0.878 | 0.884 | 0.624 | 0.398 | 0.427 |  | 0.355 | 0.332 | 0.796 | 0.678 |  | 0.764 | 0.613 | 0.521 | 0.597 | 0.294 | 0.4 | 0.595 | 0.639
15 | A-427 | 1.19 | 1.1 | 0.949 | 0.986 | 0.835 | 0.85 | 0.807 | 0.637 | 0.337 | 0.826 | 0.883 | 0.56 | 0.71 | 0.553 | 0.427 | 0.313 | 0.32 | 0.281 | 0.268 | 1.01
16 | COR-L 105 | 0.904 |  | 0.329 | 0.297 | 0.49 | 0.441 | 0.372 | 0.32 | 0.4 | 0.641 |  | 0.506 | 0.414 | 0.419 | 0.537 | 0.467 | 0.304 | 0.221 | 0.193 | 0.687
